According to patent US12441762B2, “Hepatitis c virus NS3/4A protease inhibitors” (priority 2019, dated 2025):

Assays:
Assay in all cases: biochemical
[1] = molecular target: T1, HCV NS3/4A protease D168A variant (Hepatitis C virus genotype 1a, UniProt P27958, C1185S/D1194A); type: biochemical
T1 construct: His-tag (cleaved yes); made in house; host or cells: Escherichia coli BL21(DE3), PET28a vector
Description: (§1) The HCV GT1a NS3/4A protease gene described in the Bristol Myers Squibb patent was synthesized by GenScript and cloned into a PET28a expression vector. Cys159 was mutated to a serine residue to prevent disulfide bond formation and facilitate crystallization. The D168A gene was engineered using the site-directed mutagenesis protocol from Stratagene. Protein expression and purification were carried out as previously described.
(§2) Km constants for GT1 and D168A protease were previously determined. […] Inner filter effect corrections were applied to the initial velocities (Vo) at each substrate concentration. Vo versus substrate concentration graphs were globally fit to the Michaelis-Menten equation to obtain the Km value.
(§3) For each assay, 2 nM of NS3/4A protease (GT1a and D168A) was pre-incubated at room temperature for 1 h with increasing concentration of inhibitors in assay buffer (50 mM Tris, 5% glycerol, 10 mM DTT, 0.6 mM LDAO, and 4% dimethyl sulfoxide, pH 7.5). Inhibition assays were performed in non-binding surface 96-well black half-area plates (Corning) in a reaction volume of 60 μL. […] Three independent data sets were collected for each inhibitor with each protease construct.

[2] = system: HCV NS3/4A protease D168A variant; type: biochemical, Hepatitis C virus; details: Table S1, value in parentheses
Description: as §1, §2, §3

[3] = molecular target: T2, wild-type HCV NS3/4A protease (GT1a) (Hepatitis C virus genotype 1a, UniProt P27958, C1185S); type: biochemical
T2 construct: His-tag (cleaved yes); made in house; host or cells: Escherichia coli BL21(DE3), PET28a vector
Description: as §1, §2, §3

T2 sequence (P27958 1027-1208 C1185S): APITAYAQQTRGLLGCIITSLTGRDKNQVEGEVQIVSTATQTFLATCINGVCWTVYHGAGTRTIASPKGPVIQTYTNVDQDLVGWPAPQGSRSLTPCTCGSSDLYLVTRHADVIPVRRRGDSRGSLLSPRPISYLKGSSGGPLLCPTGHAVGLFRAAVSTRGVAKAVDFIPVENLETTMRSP
T1 sequence (P27958 1027-1208 C1185S/D1194A): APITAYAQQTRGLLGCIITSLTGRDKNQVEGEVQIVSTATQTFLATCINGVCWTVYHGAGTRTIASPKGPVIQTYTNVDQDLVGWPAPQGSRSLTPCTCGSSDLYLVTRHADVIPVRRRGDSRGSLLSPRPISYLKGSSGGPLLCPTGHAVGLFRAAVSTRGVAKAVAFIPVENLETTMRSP

CC[C@H](C)[C@H](NC(C)=O)C(=O)N[C@H]1CCCCC/C=C\[C@@H]2C[C@@]2(C(=O)NS(=O)(=O)C2(C)CC2)NC(=O)[C@@H]2C[C@@H](Oc3nc4cc(OC)ccc4nc3C)CN2C1=O [Inhibitor P4P5-4, (2R,6S,13aS,14aR,16aS,Z)-6-((2S,3S)-2-acetamido-3-methylpentanamido)-2-((7-methoxy-3-methylquinoxalin-2-yl)oxy)-N-((1-methylcyclopropyl)sulfonyl)-5,16-dioxo-1,2,3,6,7,8,9,10,11,13a,14,15,16,16a-tetradecahydrocyclopropa[e]pyrrolo[1,2-a][1,4]diazacyclopentadecine-t4a(5H)-carboxamide]
Ki [1]: 81 nM
Fold Change of D168A Ki with respect to GT1a wild-type [2]: (11) fold
Ki [3]: 7.1 ± 0.24 nM

COC(=O)N[C@H](C(=O)N[C@H]1CCCCC/C=C\[C@@H]2C[C@@]2(C(=O)NS(=O)(=O)C2(C)CC2)NC(=O)[C@@H]2C[C@@H](Oc3nc4cc(OC)ccc4nc3C)CN2C1=O)C1CCCC1 [Inhibitor P4P5-3B, Methyl ((S)-1-cyclopentyl-2-(((2R,6S,13aS,14aR,16aS,Z)-2-((7-methoxy-3-methylquinoxalin-2-yl)oxy)-14a-(((1-methylcyclopropyl)sulfonyl)carbamoyl)-5,16-dioxo-1,2,3,5,6,7,8,9,10,11,13a,14,14a,15,16,16a-hexadecahydrocyclopropa[e]pyrrolo[1,2-a][1,4]diazacyclopentadecin-6-yl)amino)-2-oxoethyl)carbamate]
Ki [1]: 31.6 ± 2.1 nM
Fold Change of D168A Ki with respect to GT1a wild-type [2]: (9) fold
Ki [3]: 3.54 ± 0.13 nM

COc1ccc2nc(C(F)(F)F)c(O[C@@H]3C[C@H]4C(=O)N[C@]5(C(=O)NS(=O)(=O)C6(C)CC6)C[C@H]5/C=C\CCCCC[C@H](NC(=O)O[C@H](C)C(C)C)C(=O)N4C3)nc2c1 [NR01-121, (R)-3-Methylbutan-2-yl ((2R,6S,13aS,14aR,16aS,Z)-2-((7-methoxy-3-(trifluoromethyl)quinoxalin-2-yl)oxy)-14a-(((1-methylcyclopropyl)sulfonyl)carbamoyl)-5,16-dioxo-1,2,3,5,6,7,8,9,10,11,13a,14,14a,15,16,16a-hexadecahydrocyclopropa[e]pyrrolo[1,2-a][1,4]diazacyclopentadecin-6-yl)carbamate]
Ki [1]: 10.4 ± 0.9 nM
Ki [3]: 2.96 ± 0.22 nM

COc1ccc2nc(C(F)(F)F)c(O[C@@H]3C[C@H]4C(=O)N[C@]5(C(=O)NS(=O)(=O)C6(C)CC6)C[C@H]5/C=C\CCCCC[C@H](NC(=O)OC5CC(F)(F)C5)C(=O)N4C3)nc2c1 [NR01-151, 3,3-Difluorocyclobutyl ((2R,6S,13aS,14aR,16aS,Z)-2-((7-methoxy-3-(trifluoromethyl)quinoxalin-2-yl)oxy)-14a-(((1-methylcyclopropyl)sulfonyl)carbamoyl)-5,16-dioxo-1,2,3,5,6,7,8,9,10,11,13a,14,14a,15,16,16a-hexadecahydrocyclopropa[e]pyrrolo[1,2-a][1,4]diazacyclopentadecin-6-yl)carbamate]
Ki [1]: 43.2 ± 6.3 nM
Ki [3]: 10.9 ± 1.1 nM

COc1ccc2nc(C(F)(F)F)c(O[C@@H]3C[C@H]4C(=O)N[C@]5(C(=O)NS(=O)(=O)C6(C)CC6)C[C@H]5/C=C\CCCCC[C@H](NC(=O)O[C@H](C)C5CC5)C(=O)N4C3)nc2c1 [NR02-34, (R)-1-Cyclopropylethyl ((2R,6S,13aS,14aR,16aS,Z)-2-((7-methoxy-3-(trifluoromethyl)quinoxalin-2-yl)oxy)-14a-(((1-methylcyclopropyl)sulfonyl)carbamoyl)-5,16-dioxo-1,2,3,5,6,7,8,9,10,11,13a,14,14a,15,16,16a-hexadecahydrocyclopropa[e]pyrrolo[1,2-a][1,4]diazacyclopentadecin-6-yl)carbamate]
Ki [1]: 26.2 ± 0.6 nM
Ki [3]: 11.8 ± 1.4 nM

COc1ccc2nc(C)c(O[C@@H]3C[C@H]4C(=O)N[C@]5(C(=O)NS(=O)(=O)C6(C)CC6)C[C@H]5/C=C\CCCCC[C@H](NC(=O)O[C@@H](C)C5CC5)C(=O)N4C3)nc2c1 [NR02-25, (S)-1-Cyclopropylethyl ((2R,6S,13aS,14aR,16aS,Z)-2-((7-methoxy-3-methylquinoxalin-2-yl)oxy)-14a-(((1-methylcyclopropyl)sulfonyl)carbamoyl)-5,16-dioxo-1,2,3,5,6,7,8,9,10,11,13a,14,14a,15,16,16a-hexadecahydrocyclopropa[e]pyrrolo [1,2-a][1,4]diazacyclopentadecin-6-yl)carbamate]
Ki [1]: 31.9 ± 1.8 nM
Ki [3]: 1.84 ± 0.12 nM

COc1ccc2nc(C)c(O[C@@H]3C[C@H]4C(=O)N[C@]5(C(=O)NS(=O)(=O)C6(C)CC6)C[C@H]5/C=C\CCCCC[C@H](NC(=O)O[C@@H](C)C(F)(F)F)C(=O)N4C3)nc2c1 [NR02-23, (S)-1,1,1-Trifluoropropan-2-yl ((2R,6S,13aS,14aR,16aS,Z)-2-((7-methoxy-3-methylquinoxalin-2-yl)oxy)-14a-(((1-methylcyclopropyl)sulfonyl)carbamoyl)-5,16-dioxo-1,2,3,5,6,7,8,9,10,11,13a,14,14a,15,16,16a-hexadecahydrocyclopropa[e]pyrrolo [1,2-a][1,4]diazacyclopentadecin-6-yl)carbamate]
Ki [1]: 40 ± 6 nM
Ki [3]: 0.74 ± 0.2 nM

COc1ccc2nc(C)c(O[C@@H]3C[C@H]4C(=O)N[C@]5(C(=O)NS(=O)(=O)C6(C)CC6)C[C@H]5/C=C\CCCCC[C@H](NC(=O)OC5CC(F)(F)C5)C(=O)N4C3)nc2c1 [NR01-149, 3,3-Difluorocyclobutyl ((2R,6S,13aS,14aR,16aS,Z)-2-((7-methoxy-3-methylquinoxalin-2-yl)oxy)-14a-(((1-methylcyclopropyl)sulfonyl)carbamoyl)-5,16-dioxo-1,2,3,5,6,7,8,9,10,11,13a,14,14a,15,16,16a-hexadecahydrocyclopropa[e]pyrrolo[1,2-a][1,4]diazacyclopentadecin-6-yl)carbamate]
Ki [1]: 26 ± 1 nM
Ki [3]: 0.62 ± 0.3 nM

COc1ccc2nc(C(F)(F)F)c(O[C@@H]3C[C@H]4C(=O)N[C@]5(C(=O)NS(=O)(=O)C6(C)CC6)C[C@H]5/C=C\CCCCC[C@H](NC(=O)OCC(C)(C)C)C(=O)N4C3)nc2c1 [NR02-48, Neopentyl ((2R,6S,13aS,14aR,16aS,Z)-2-((7-methoxy-3-(trifluoromethyl)quinoxalin-2-yl)oxy)-14a-(((1-methylcyclopropyl)sulfonyl)carbamoyl)-5,16-dioxo-1,2,3,5,6,7,8,9,10,11,13a,14,14a,15,16,16a-hexadecahydrocyclopropa[e]pyrrolo[1,2-a][1,4]diazacyclopentadecin-6-yl)carbamate]
Ki [1]: 13 ± 1.6 nM
Ki [3]: 2.94 ± 0.14 nM

COc1ccc2nc(C(F)(F)F)c(O[C@@H]3C[C@H]4C(=O)N[C@]5(C(=O)NS(=O)(=O)C6(C)CC6)C[C@H]5/C=C\CCCCC[C@H](NC(=O)OC5CCC5)C(=O)N4C3)nc2c1 [NR01-95, Cyclobutyl ((2R,6S,13aS,14aR,16aS,Z)-2-((7-methoxy-3-(trifluoromethyl)quinoxalin-2-yl)oxy)-14a-(((1-methylcyclopropyl)sulfonyl)carbamoyl)-5,16-dioxo-1,2,3,5,6,7,8,9,10,11,13a,14,14a,15,16,16a-hexadecahydrocyclopropa[e]pyrrolo[1,2-a][1,4]diazacyclopentadecin-6-yl)carbamate]
Ki [1]: 29.5 ± 1.8 nM
Ki [3]: 8.53 ± 0.87 nM

COc1ccc2nc(C(F)(F)F)c(O[C@@H]3C[C@H]4C(=O)N[C@]5(C(=O)NS(=O)(=O)C6(C)CC6)C[C@H]5/C=C\CCCCC[C@H](NC(=O)OC5(C)CC5)C(=O)N4C3)nc2c1 [NR02-31, 1-Methylcyclopropyl ((2R,6S,13aS,14aR,16aS,Z)-2-((7-methoxy-3-(trifluoromethyl)quinoxalin-2-yl)oxy)-14a-(((1-methylcyclopropyl)sulfonyl)carbamoyl)-5,16-dioxo-1,2,3,5,6,7,8,9,10,11,13a,14,14a,15,16,16a-hexadecahydrocyclopropa[e]pyrrolo[1,2-a][1,4]diazacyclopentadecin-6-yl)carbamate]
Ki [1]: 41.3 ± 7.3 nM
Ki [3]: 11.4 ± 0.84 nM

CCC(CC)OC(=O)N[C@H]1CCCCC/C=C\[C@@H]2C[C@@]2(C(=O)NS(=O)(=O)C2(C)CC2)NC(=O)[C@@H]2C[C@@H](Oc3nc4cc(OC)ccc4nc3C(F)(F)F)CN2C1=O [NR02-52, Pentan-3-yl ((2R,6S,13aS,14aR,16aS,Z)-2-((7-methoxy-3-(trifluoromethyl)quinoxalin-2-yl)oxy)-14a-(((1-methylcyclopropyl)sulfonyl)carbamoyl)-5,16-dioxo-1,2,3,5,6,7,8,9,10,11,13a,14,14a,15,16,16a-hexadecahydrocyclopropa[e]pyrrolo[1,2-a][1,4]diazacyclopentadecin-6-yl)carbamate]
Ki [1]: 20.9 ± 2.1 nM
Ki [3]: 4.6 ± 0.66 nM

COc1ccc2nc(C(F)(F)F)c(O[C@@H]3C[C@H]4C(=O)N[C@]5(C(=O)NS(=O)(=O)C6(C)CC6)C[C@H]5/C=C\CCCCC[C@H](NC(=O)O[C@@H]5CCC[C@H]5F)C(=O)N4C3)nc2c1 [NR02-09, (1R,2R)-2-Fluorocyclopentyl ((2R,6S,13aS,14aR,16aS,Z)-2-((7-methoxy-3-(trifluoromethyl)quinoxalin-2-yl)oxy)-14a-(((1-methylcyclopropyl)sulfonyl)carbamoyl)-5,16-dioxo-1,2,3,5,6,7,8,9,10,11,13a,14,14a,15,16,16a-hexadecahydrocyclopropa[e]pyrrolo[1,2-a][1,4]diazacyclopentadecin-6-yl)carbamate]
Ki [1]: 18.9 ± 3.6 nM
Ki [3]: 8 ± 1.8 nM
